Measurements from patent US12161715B2, “EGFR targeted therapy” (priority 2011, dated 2024).

Assay: Case 3: conventional drugs approved for neuropathic pain
Format: in vivo, human
Settings: failed back surgery syndrome; pregabalin follow-up 19 weeks

Compound	NP response to conventional drug, Case 3
NCC1(CC(=O)O)CCCCC1 [gabapentin]	unsuccessfully treated
CC(C)C[C@H](CN)CC(=O)O [pregabalin]	responded
